MIC data for five compounds are collected here from patent US12440529B2, “Topical Croton lechleri compositions and their use in the treatment of a bacterial colonization or primary or secondary bacterial infection of an underlying skin disorder” (ALPHYN BIOLOGICS, INC., priority 2020, dated 2025).

What is called MIC is the lowest concentration found to suppress growth.

≈ marks a conversion by molar mass, not a printed value. Like-named read-outs stand apart in the source and are kept apart here. Bounds are passed on as bounds.

Test [1] concerns S. pyogenes (Erythromycin and Tetracycline resistant strains). Put plainly: MIC/MBC assay (2-fold microdilution, CAMHB with […] laked horse blood). The test is classed as cell-based. Particulars: Streptococcus pyogenes. As for the experimental part:
(§1) Tables 26 and 27 show an assay whose setup is same as what was used for screening S. aureus and P. aeruginosa (i.e. 2-fold microdilution). The 20 strains of S. pyogenes assayed were selected from the two rounds of antibiotic screening to identify Erythromycin and Tetracycline resistant strains. […] For this feasibility study, AB-101 Lot 1 and Lot 2 was used. P. aeruginosa ATCC 27853 was tested as a positive control for AB-101 activity.
(In general: In broth dilution the organism is exposed to a series of concentrations in liquid medium.)

For test [2], the system named is MSSA strains (Mupirocin-resistant and Mupirocin-susceptible; QC ATCC 29213). Put plainly: In vitro MIC/MBC assay (2-fold microdilution), S. aureus strain panel. Format: cell-based, Staphylococcus aureus. On the procedure: AB-101 was tested against an extensive variety of bacterial strains, including Mupirocin-resistant MRSA, Mupirocin-resistant MSSA, Mupirocin-susceptible MSSA, Mupirocin-susceptible MRSA, and other skin-related pathogens.
Measures included the minimum inhibitory concentration (MIC) which is the lowest concentration of AB-101 that prevents visible growth of the bacterium or pathogen, and minimum bactericidal concentration (MBC) which is the lowest concentration of an antibacterial agent required to kill a bacterium.
AB-101 Lots 01, 02 and a purified extract of taspine for MIC are compared. […] Taspine may have additional synergistic benefits to be included in the whole extract in the final product for the effective treatment of a bacterial colonization or primary or secondary bacterial infection of an underlying skin disorder.
AB-101 Lots 01, 02 and a purified extract of taspine for MBC are compared. […] Taspine may have additional synergistic benefits to be included in the whole extract in the final product for the effective treatment of bacterial colonization or primary or secondary bacterial infection of an underlying skin disorder.
as §1

Another test relates to Pseudomonas aeruginosa. The test can be described thus: In vitro MIC/MBC assay (2-fold microdilution), multi-drug resistant strain panel. Format: cell-based. The source says:
Of the 20, 5 are known to be Verona integron-encoded metallo-beta-lactamase (VIM)—producing Pseudomonas aeruginosa which are drug resistant strains of Pseudomonas aeruginosa, another 5 are know to be Klebsiella pneumoniae carbapenemase (KPC) producing Pseudomonas aeruginosa strains which are drug resistant strains of Pseudomonas aeruginosa, and 4 are known to be IMP-Type Metallo-β-Lactamase (IMP))—producing Pseudomonas aeruginosa which are drug resistant strains of Pseudomonas aeruginosa. The 6 remaining strains are known to be antibiotic resistant and are listed simply as MDR strains. […]

[3] abbreviates: S. pyogenes strain 1744264, read-out: MIC.
The mark [4] stands for this setting: S. pyogenes strain 1744265, read-out: MIC.
[5] abbreviates: S. pyogenes strain 1744271, read-out: MIC.
Setting [6] is: S. pyogenes strain 1744272, read-out: MIC.
[7] abbreviates: S. pyogenes strain 1744275, read-out: MIC.
The mark [8] stands for this setting: S. pyogenes strain 1744277, read-out: MIC.
Where [9] appears, read: S. pyogenes strain 1744285, read-out: MIC.
Where [10] appears, read: S. pyogenes strain 2065754, read-out: MIC.
Where [11] appears, read: S. pyogenes strain 2065755, read-out: MIC.
The mark [12] stands for this setting: S. pyogenes strain 2065756, read-out: MIC.
[13] abbreviates: S. pyogenes strain 2065757, read-out: MIC.
[14] abbreviates: S. pyogenes strain 2065759, read-out: MIC.
The mark [15] stands for this setting: S. pyogenes strain 2065760, read-out: MIC.
Setting [16] is: S. pyogenes strain 2065761, read-out: MIC.
Setting [17] is: S. pyogenes strain 2065762, read-out: MIC.
[18] abbreviates: S. pyogenes strain 2065763, read-out: MIC.
Setting [19] is: S. pyogenes strain 2065765, read-out: MIC.
The mark [20] stands for this setting: S. pyogenes strain 20658748, read-out: MIC.
The mark [21] stands for this setting: S. pyogenes strain 20658749, read-out: MIC.
[22] abbreviates: S. pyogenes strain 20658750, read-out: MIC.

For `CN[C@H](CC(C)C)C(=O)N[C@H]1C(=O)N[C@@H](CC(N)=O)C(=O)N[C@H]2C(=O)N[C@H]3C(=O)N[C@H](C(=O)N[C@H](C(=O)O)c4cc(O)cc(O)c4-c4cc3ccc4O)[C@H](O)c3ccc(c(Cl)c3)Oc3cc2cc(c3O[C@@H]2O[C@H](CO)[C@@H](O)[C@H](O)[C@H]2O[C@H]2C[C@](C)(N)[C@H](O)[C@H](C)O2)Oc2ccc(cc2Cl)[C@H]1O` [Vancomycin], the MIC in test [1] (S. pyogenes strain 1744264) is 0.5 µg/mL (≈ 0.345 µM); in test [1] (S. pyogenes strain 1744265), 8 µg/mL (≈ 5.52 µM); in test [1] (S. pyogenes strain 1744271) it was 0.5 µg/mL (≈ 0.345 µM); in test [1] (S. pyogenes strain 1744272) it was 1 µg/mL (≈ 0.69 µM); in test [1] (S. pyogenes strain 1744275) it was 0.25 to 0.5 µg/mL (≈ 0.173 to 0.345 µM); in test [1] (S. pyogenes strain 1744277), 4 µg/mL (≈ 2.76 µM). For the same compound, the MIC in test [1] (S. pyogenes strain 1744285), in test [1] (S. pyogenes strain 2065754), in test [1] (S. pyogenes strain 2065755), in test [1] (S. pyogenes strain 2065756), in test [1] (S. pyogenes strain 2065757) and in test [1] (S. pyogenes strain 2065759) was 0.5 µg/mL (≈ 0.345 µM) in each case. In addition, the MIC in test [1] (S. pyogenes strain 2065760) was 0.5 µg/mL (≈ 0.345 µM); in test [1] (S. pyogenes strain 2065761), 0.5 µg/mL (≈ 0.345 µM); in test [1] (S. pyogenes strain 2065762), 0.5 µg/mL (≈ 0.345 µM); in test [1] (S. pyogenes strain 2065763), 0.5 µg/mL (≈ 0.345 µM); in test [1] (S. pyogenes strain 2065765), 2 to 4 µg/mL (≈ 1.38 to 2.76 µM); in test [1] (S. pyogenes strain 20658748), 0.25 to 0.5 µg/mL (≈ 0.173 to 0.345 µM). Also, the MIC in test [1] (S. pyogenes strain 20658749) and in test [1] (S. pyogenes strain 20658750) was 0.5 µg/mL (≈ 0.345 µM) in each case.
In the case of `C/C(=C\C(=O)OCCCCCCCCC(=O)O)C[C@@H]1OC[C@H](C[C@@H]2O[C@H]2[C@@H](C)[C@H](C)O)[C@@H](O)[C@H]1O` [Mupirocin], the MIC was 0.25 to 1 µg/mL in test [2] (Staphylococcus aureus, strain CDC 461, MupirocinS, MSSA); 0.25 to 1 µg/mL in test [2] (Staphylococcus aureus, strain CDC 461; MupirocinS, MSSA); 0.25 µg/mL (≈ 0.499 µM) in test [1] (setting [3]); 0.5 µg/mL (≈ 0.999 µM) in test [1] (setting [4]); 0.5 µg/mL (≈ 0.999 µM) in test [1] (setting [5]); 0.25 µg/mL (≈ 0.499 µM) in test [1] (setting [6]). The MIC in test [1] (setting [7]), in test [1] (setting [8]), in test [1] (setting [9]), in test [1] (setting [10]), in test [1] (setting [11]) and in test [1] (setting [12]) was not above 0.125 µg/mL each time. Also, the MIC in test [1] (setting [13]), in test [1] (setting [14]), in test [1] (setting [15]), in test [1] (setting [16]), in test [1] (setting [17]) and in test [1] (setting [18]) was not above 0.125 µg/mL each time. Besides, the MIC in test [1] (setting [19]), in test [1] (setting [20]), in test [1] (setting [21]) and in test [1] (setting [22]) was not above 0.125 µg/mL throughout.
`C[C@@H](O)[C@H]1C(=O)N2C(C(=O)O)=C(SCCN=CN)C[C@H]12` [Imipenem]: the MIC in the test with Pseudomonas aeruginosa (ATCC27853, strain ATCC 27853, QC strain) was 2 µg/mL (≈ 6.68 µM); against Pseudomonas aeruginosa (strain CDC 0064, MDR), more than 64 µg/mL; with Pseudomonas aeruginosa (strain CDC 0092, IMP), more than 64 µg/mL; with Pseudomonas aeruginosa (strain CDC 0103, IMP) it was more than 64 µg/mL; in the test with Pseudomonas aeruginosa (strain CDC 0230, VIM), more than 64 µg/mL; against Pseudomonas aeruginosa (strain CDC 0231, KPC), more than 64 µg/mL. The MIC was more than 64 µg/mL with Pseudomonas aeruginosa (strain CDC 0239, VIM); more than 64 µg/mL against Pseudomonas aeruginosa (strain CDC 0241, IMP); more than 64 µg/mL against Pseudomonas aeruginosa (strain CDC 0246, MDR); more than 64 µg/mL with Pseudomonas aeruginosa (strain CDC 0250, MDR); more than 64 µg/mL with Pseudomonas aeruginosa (strain CDC 0254, VIM); more than 64 µg/mL in the test with Pseudomonas aeruginosa (strain CDC 0255, VIM). For the same compound, the MIC is 16 µg/mL (≈ 53.4 µM) with Pseudomonas aeruginosa (strain CDC 0353, MDR); more than 64 µg/mL in the test on Pseudomonas aeruginosa (strain CDC 0356, KPC); 16 µg/mL (≈ 53.4 µM) in the test on Pseudomonas aeruginosa (strain CDC 0357, MDR); more than 64 µg/mL against Pseudomonas aeruginosa (strain CDC 0439, IMP); more than 64 µg/mL against Pseudomonas aeruginosa (strain CDC 0441, KPC); 16 µg/mL (≈ 53.4 µM) against Pseudomonas aeruginosa (strain CDC 0508, MDR). Further, the MIC in the test on Pseudomonas aeruginosa (strain CDC 0509, VIM) is more than 64 µg/mL; in the test with Pseudomonas aeruginosa (strain CDC 0516, KPC), more than 64 µg/mL; against Pseudomonas aeruginosa (strain CDC 0518, KPC), more than 64 µg/mL.
As to `CN(C)[C@@H]1C(O)=C(C(N)=O)C(=O)[C@@]2(O)C(O)=C3C(=O)c4c(O)cccc4[C@@](C)(O)[C@H]3C[C@@H]12` [Tetracycline], the MIC in test [1] (setting [3]) was 0.25 µg/mL (≈ 0.563 µM); in test [1] (setting [4]), 8 µg/mL (≈ 18 µM); in test [1] (setting [5]), 16 µg/mL (≈ 36 µM); in test [1] (setting [6]) it was 8 µg/mL (≈ 18 µM); in test [1] (setting [7]) it was 0.25 µg/mL (≈ 0.563 µM); in test [1] (setting [8]), 0.25 µg/mL (≈ 0.563 µM). The MIC in test [1] (setting [9]) is more than 16 µg/mL; in test [1] (setting [10]) it was 16 µg/mL (≈ 36 µM); in test [1] (setting [11]), more than 16 µg/mL; in test [1] (setting [12]), more than 16 µg/mL; in test [1] (setting [13]), 16 µg/mL (≈ 36 µM); in test [1] (setting [15]), more than 16 µg/mL. The MIC was more than 16 µg/mL in test [1] (setting [17]); 2 to 4 µg/mL (≈ 4.5 to 9 µM) in test [1] (setting [19]); 16 µg/mL (≈ 36 µM) in test [1] (setting [20]); 16 µg/mL (≈ 36 µM) in test [1] (setting [21]); more than 16 µg/mL in test [1] (setting [22]).
Take `CC[C@H]1OC(=O)[C@H](C)[C@@H](O[C@H]2C[C@@](C)(OC)[C@@H](O)[C@H](C)O2)[C@H](C)[C@@H](O[C@@H]2O[C@H](C)C[C@H](N(C)C)[C@H]2O)[C@](C)(O)C[C@@H](C)C(=O)[C@H](C)[C@@H](O)[C@]1(C)O` [Erythromycin]: the MIC in test [1] (setting [3]) was 2 µg/mL (≈ 2.73 µM); in test [1] (setting [4]) it was more than 16 µg/mL; in test [1] (setting [5]) it was more than 16 µg/mL; in test [1] (setting [6]), more than 16 µg/mL; in test [1] (setting [7]), more than 16 µg/mL; in test [1] (setting [8]), 0.5 µg/mL (≈ 0.681 µM). In addition, the MIC is more than 16 µg/mL in test [1] (setting [9]); more than 16 µg/mL in test [1] (setting [10]); 2 µg/mL (≈ 2.73 µM) in test [1] (setting [11]); 2 µg/mL (≈ 2.73 µM) in test [1] (setting [12]); more than 16 µg/mL in test [1] (setting [13]); 4 µg/mL (≈ 5.45 µM) in test [1] (setting [14]). Moreover, the MIC in test [1] (setting [15]) was 2 µg/mL (≈ 2.73 µM); in test [1] (setting [16]), more than 16 µg/mL; in test [1] (setting [17]), 2 µg/mL (≈ 2.73 µM); in test [1] (setting [18]), 2 µg/mL (≈ 2.73 µM); in test [1] (setting [19]), more than 16 µg/mL; in test [1] (setting [20]), 2 µg/mL (≈ 2.73 µM). Moreover, the MIC in test [1] (setting [21]) and in test [1] (setting [22]) was 1 µg/mL (≈ 1.36 µM) each time.
